Laboratory results taken from ChEMBL document CHEMBL4428031, “Verbascoside Inhibits Promastigote Growth and Arginase Activity of Leishmania amazonensis” (J Nat Prod, 2016).
Active and inactive are the calls of the source. The calls are words filed in the database; no cut-off is given here.

Assays:
Arginase = Arginase (Leishmania amazonensis, UniProt O96394); assay: Competitive inhibition of Leishmania amazonensis arginase assessed as inhibition constant for enzyme-inhibitor complex using L-arginine as substrate incubated for 15 mins by Dixon plot analysis
Leishmania amazonensis [1] = assay: Antileishmanial activity against Leishmania amazonensis MHOM/BR/1973/M2269 promastigotes assessed as reduction in cell viability incubated up to 72 hrs by trypan blue dye based Neubauer chamber method; format: functional, organism-based; settings: MHOM/BR/1973/M2269, 72 h
Leishmania amazonensis [2] = assay: Antileishmanial activity against Leishmania amazonensis MHOM/BR/1973/M2269 promastigotes assessed as reduction in cell viability at 100 uM after 72 hrs by trypan blue dye based Neubauer chamber method; format: functional, organism-based
Leishmania donovani = assay: Antileishmanial activity against Leishmania donovani axenic amastigotes after 72 hrs by alamar blue assay; format: functional, organism-based

`C[C@@H]1O[C@@H](O[C@@H]2[C@@H](O)[C@H](OCCc3ccc(O)c(O)c3)O[C@H](CO)[C@H]2OC(=O)/C=C/c2ccc(O)c(O)c2)[C@H](O)[C@H](O)[C@H]1O` [ACETOSIDE] was tested. Which Ki (Arginase) did it give?
Its Ki is 0.7 µM.

And the EC50 (Leishmania amazonensis [1])?
Its EC50 is 19 µM.

And the Activity (Leishmania amazonensis [2])?
Its Activity is “Active”.

And the EC50 (Leishmania donovani)?
The EC50 was 14 µM.
